Assay results taken from US9006205B2, “Antisense oligonucleotides against neutral sphingomyelinase and neutral sphingomyelinase inhibitor GW4869 for degenerative neurological disorders” (Rush University Medical Center, priority 2011, dated 2015).

Columns and labels:
Type in all cases: cell-based
[1] = system: primary human astroglia; assay: NO synthesis (nitrite, Griess reagent) in primary human astroglia; conditions: astroglia pretreated 40 h with oligonucleotide; nitrite after 24 h of stimulation
Method in brief: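 Primary human astroglia pretreated 40 h with antisense or scrambled oligonucleotides against N-SMase and A-SMase, then stimulated with fibrillar Aβ plus IL-1β under serum-free conditions. Nitrite was measured in supernatants by Griess reagent after 24 h of stimulation.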

[2] = system: TNF-α, IL-1β and IL-6 mRNAs; assay: TNF-α, IL-1β and IL-6 mRNA expression (RT-PCR) in activated primary human astroglia; conditions: oligonucleotide 40 h, then 6 h of stimulation
Experimental: Total RNA was isolated from human primary astrocytes using RNA-Easy Qiagen kit following manufactures protocol. To remove any contaminating genomic DNA, total RNA was digested with DNase. Semi-quantitative RT-PCR was carried out as described earlier using oligo (dT) 12-18 as primer and MMLV reverse transcriptase (Clontech) in a 20-μl reaction mixture. The resulting cDNA was appropriately diluted, and diluted cDNA was amplified using Titanium Taq polymerase and the following primers for human proinflammatory genes: […]
Cells pretreated with ASO and ScO against N-SMase and A-SMase for 40 h were stimulated with (Aβ+IL-1β) under serum-free condition. After 24 h of stimulation, the concentration of nitrite was measured in supernatants (FIG. 4A) by Griess reagent. […] Cells were treated with ASO/ScO for 40 h followed by stimulation with the combination of fibrillar Aβ and IL-Iβ as above. After 6 h, the expression of iNOS mRNA was analyzed by both semi-quantitative RT-PCR (C) and quantitative real-time PCR (FIG. 4D). The expression of TNF-a, IL-6 and IL-Iβ mRNAs were analyzed by semi-quantitative RT-PCR (FIG. 4E). Results are mean±SD of three different experiments. ^ap<0.001 vs control; ^bp<0.001 vs (Aβ+IL-Iβ).

[3] = system: NF-κB; assay: EMSA of NF-κB DNA-binding activity in primary human astroglia; conditions: 1 μM oligonucleotide 40 h; 1 h of stimulation
[4] = system: primary human neurons; assay: TUNEL apoptosis of neurons challenged by oligomeric Aβ-activated astrocytes, trans-well; conditions: neurons pretreated 40 h with 1 μM oligonucleotide; 6 h
Experimental: Fragmented DNA was detected in situ by the terminal deoxynucleotidyltransferase-mediated binding of 3′-OH ends of DNA fragments generated in response to fibrillar Aβ1-42, using a commercially available kit (TdT FragEL™) from Calbiochem. Briefly, cover slips were treated with 20 μg/ml proteinase K for 15 min at room temperature and washed prior to terminal deoxynucleotidyltransferase staining.
In FIG. 5A, primary astrocytes were stimulated with fibrillar Aβ1-42, oligomeric Aβ1-42 and reverse peptide Aβ42-1 for 24 h followed by double-labeling of GFAP and iNOS. In FIG. 5B, primary human astrocytes seeded in inserts were stimulated with a combination of I μM of oligomeric Aβ1-42 and 10 ng/ml of IL-Iβ in serum free media. […] After 6 h, neuronal apoptosis was monitored by TUNEL. In FIG. 5C, TUNEL-positive cells were counted manually in four different images of each of three coverslips by three individuals blinded to the experiment. Values obtained from the control group (1) served as 100%, and data obtained from other three groups i.e. the oligomeric Aβ-activated astrocytes (OAA) group (2), the ASO-OAA group (3), and the ScO-OAA group (4) was calculated as percent of control accordingly. Results are mean+S.D. of three different experiments. ^ap<0.001 vs control; ^bp<0.001 vs OAA.

[5] = system: primary human neurons; assay: MTT metabolism of neurons in astrocyte-neuron trans-well; conditions: neurons pretreated with oligonucleotide; 18 h of stimulation
Experimental: Primary human astrocytes were grown to confluency on inserts. After 24 h of stimulation by the combination of Aβ (1 μM) and IL-Iβ (10 ng/ml), inserts were washed thrice with HBSS and then placed onto the wells containing primary human neurons. Therefore, in this trans-well model, although neurons and astrocytes face each other, they are separable and the effect of soluble factors released from activated astrocytes on neurons can be studied allowing analysis of neuronal and glial populations separately.
Mitochondrial activity was measured with the 3-(4,5-dimethylthiazol-2-yl)-2,5-diphenyltetrazolium bromide (MTT) assay (Sigma). The cells were grown on 24-well culture plates with 500 μl of medium and treated with various reagents according to the experimental design. At the end of the treatment period, 300 μl of culture medium were removed from each well, and 20 μl of MTT solution (5 mg/ml) were added and incubated for 1 h.
Primary human neurons were incubated with antisense (ASO) and scrambled oligonucleotides (ScO) against N-SMase (A) and A-SMase (FIG. 2B). After 48 h, neurons were analyzed for protein expression of N-SMase and A-SMase. In FIG. 2C, primary human astrocytes seeded in inserts were stimulated by the combination of Aβ and IL-1β as described above. […] After 6 h of treatment with activated astrocytes, apoptotic events in neurons were detected by TUNEL. In FIG. 2D, TUNEL-positive cells were counted manually in four different images of each of three coverslips by three individuals blinded to the experiment. […] Values obtained from the control group served as 100%, and data obtained in other groups were calculated as percent of control accordingly. […]
In FIGS. 3A-3E, primary human astrocytes seeded in inserts were stimulated by the combination of Aβ and IL-Iβ as described above. […] In FIG. 3A, after 1 h, activity of N-SMase was measured in total cell extracts of neurons as described above. […] Values obtained from the control group served as 100%, and data obtained in other groups were calculated as percent of control accordingly.

With “5′- CAGCGAGCCCGTCCACCAGCC -3′ (DNA, all phosphorothioate, methylation of C not given here) [ASO against N-SMase, ID; NO.: 12]” the “(Aβ+IL-1β)-induced production of NO” value [1] was “markedly abrogated”, the “(Aβ+IL-1β)-induced expression of TNF-α, IL-1β and IL-6 mRNAs” value [2] was “abrogated” and the “(Aβ+IL-1β)-induced DNA-binding activity of NF-κB” value [3] was “suppressed”. The “oligomeric Aβ-activated astrocyte-induced apoptosis of human neurons (TUNEL)” value [4] was “blocked” and the “activated astroglia-mediated loss of MTT metabolism” value [5] was “effectively prevented”.
